# Results from patent publication US20140357512A1, “HISTONE DEACETYLASE (HDAC) BIOMARKERS IN MULTIPLE MYELOMA” (priority 2013, published 2014).
# Tested on: human myeloma cell line MM.1S
# Assay: SILAC acetylated-lysine peptide profiling, HDAC inhibitor vs DMSO (light/heavy ratio)
# Assay type: cell-based
# Source text: An embodiment of the invention comprises utilizing the SILAC method in order to quantitate changes in protein expression between two or more populations of cells. The SILAC method is a technique based on mass spectrometry that detects differences in protein abundance among samples using non-radioactive isotopic labeling. The SILAC method is known in the art, and described in detail in Ong et al., “Stable Isotope Labeling by Amino Acids in Cell Culture, SILAC, as a Simple and Accurate Approach to Expression Proteomics”, Molecular & Cellular Proteomics, vol. 1, pp. 376-386 (2002), which is incorporated herein by reference in its entirety.
# Briefly, the SILAC method involves growing two populations of cells in cell culture. The first population of cells is grown in growth media containing normal amino acids (“normal media”). The second population of cells is grown in media lacking a standard essential amino acid (such as lysine), but is then supplemented with a non-radioactive, isotopically labeled form of that essential amino acid (such as lysine labeled with ^13C atoms, rather than normal ^12C atoms), which is called “heavy media”. When the two populations of cells are each growing in the medium, they incorporate the amino acids into all of their proteins. The growth of cells maintained in the heavy media is no different from that in normal media. All peptides containing the heavy amino acids are heavier than their normal counterparts. The cells from each of the two populations of cells are lysed. The lysates from each of the two cell populations are then combined. The combined cell lysates are then analyzed by mass spectrometry. Pairs of chemically identical peptides of different stable isotope composition can be differentiated in a mass spectrometer due to their difference in mass. The ratio of peak intensities in the mass spectrum for such peptide pairs reflects the abundance ratio for the two proteins.
# This example describes SILAC studies that were performed to compare the effects of three different HDAC inhibitors (Compound A, Compound B, and tubastatin A) to a control on a human multiple myeloma cell line. The HDAC inhibitors were also compared amongst themselves to determine differences in their effects.
# A human myeloma cell line MM.1S was grown using either ^12C (light) or ^13C (heavy) lysine containing culture medium. The “heavy” cells were treated with DMSO as the control, and the “light” cells were treated with a single HDAC inhibitor at 37° C. for 6 hours. The heavy and light cells were lysed, and the lysates were mixed in 1:1 ratio and digested with the protease trypsin. The acetylated lysine containing peptides (due to the action of the HDAC inhibitor) in the digested peptide pool were captured by a non-specific anti-acetylated lysine antibody cocktail (the antibodies identify both light and heavy acetylated peptides), and subjected to mass spectrometry analysis in order to identify thousands of individual peptides.
# Thousands of peptides were identified in pairs (^12C and ^13C) due to their known mass differences. The amino acid sequence and quantitative ratio (Light/Heavy) of a given peptide in two differentially treated cell lysates were then determined and annotated with their possible protein (gene) sources.
# As stated above, three HDAC inhibitors (Compound A, Compound B, and Tubastatin A) were used. Thus, the SILAC method was performed three times, with a different HDAC inhibitor compared to a control each time. Accordingly, there are three pairs of quantitative data in the table below, i.e., Compound A:DMSO, Compound B:DMSO, and Tubastatin A:DMSO. A cut-off of 1.30 fold of change (increase or decrease) was then used to determine “changed” or “+” in the table, and any peptides with a fold of change less than 1.3 fold were determined to be “unchanged” or “0” in the table. Those peptides that were not identified were marked as “NA” in the table. […]
smiles,measurement,setting,value
"O=C(CCCCCCNC(=O)c1cnc(N(c2ccccc2)c2ccccc2)nc1)NO [Compound A, 2-(diphenylamino)-N-(7-(hydroxyamino)-7-oxoheptyl)pyrimidine-5-carboxamide]",light to heavy ratio (L/H ratio) of acetylated peptide […](ac)FLK (SEQ ID NO: 326),"Isoform 5 of Transcriptional regulator ATRX [812], ATRX, drug:DMSO",0.00 log 2
same,"light to heavy ratio (L/H ratio), log 2 scale, acetylated peptide YNDPIYVK(ac)LEK (SEQ ID NO: 764)","Isoform A of AP-1 complex subunit beta-1 [335], gene AP1B1, drug:DMSO",0.93
same,light to heavy ratio (L/H ratio) of acetylated peptide K(ac)VLFTCFK (SEQ ID NO: 529),"Isoform Beta-2 of DNA topoisomerase 2-beta [749], gene TOP2B, inhibitor:DMSO",−0.42 log 2
same,light to heavy ratio (L/H ratio) of acetylated peptide K(ac)SSETLR (SEQ ID NO: 601),"Isoform CNPI of 23-cyclic-nucleotide 3-phosphodiesterase [177], gene CNP, inhibitor:DMSO",0.46 log 2
same,light to heavy ratio (L/H ratio) of acetylated peptide MVAAAK(ac)YAR (SEQ ID NO: 324),"Isoform Heart of ATP synthase subunit gamma mitochondrial [55], ATP5C1, drug:DMSO",0.00 log 2
same,"light to heavy ratio (L/H ratio), log 2 scale, acetylated peptide VNK(ac)EVER (SEQ ID NO: 782)","Isoform Long of ES1 protein homolog mitochondrial [157], gene C21orf33, drug:DMSO",1.00
same,light to heavy ratio (L/H ratio) of acetylated peptide EFHQAGK(ac)[…] (SEQ ID NO: 623),"Isoform Long of ES1 protein homolog mitochondrial [171], gene C21orf33, inhibitor:DMSO",0.48 log 2
same,light to heavy ratio (L/H ratio) of acetylated peptide […](ac)R (SEQ ID NO: 588),"Isoform Long of Spectrin beta chain brain 1 [497], gene SPTBN1, inhibitor:DMSO",0.44 log 2
same,light to heavy ratio (L/H ratio) of acetylated peptide NLHSK(ac)WLK (SEQ ID NO: 589),"Isoform Long of Spectrin beta chain brain 1 [1312], gene SPTBN1, inhibitor:DMSO",0.44 log 2
same,light to heavy ratio (L/H ratio) of acetylated peptide VPNDK(ac)YYGAQTVR (SEQ ID NO: 625),"Isoform Mitochondrial of Fumarate hydratase mitochondrial [66], gene FH, inhibitor:DMSO",0.49 log 2
same,light to heavy ratio (L/H ratio) of acetylated peptide MMVAGFK(ac)K (SEQ ID NO: 339),"Isoform Short of Heterogeneous nuclear ribonucleoprotein U [524], HNRNPU, drug:DMSO",0.00 log 2
same,light to heavy ratio (L/H ratio) of acetylated peptide APQCLGK(ac)FIEIAAR (SEQ ID NO: 338),"Isoform Short of Heterogeneous nuclear ribonucleoprotein U [546], HNRNPU, drug:DMSO",0.00 log 2
same,light to heavy ratio (L/H ratio) of acetylated peptide LLEQYK(ac)EESK (SEQ ID NO: 302),"Isoform Short of Heterogeneous nuclear ribonucleoprotein U [651], HNRNPU, drug:DMSO",0.89 log 2
same,"light to heavy ratio (L/H ratio) of acetylated peptide, log 2 scale","K(ac)[…] (SEQ ID NO: 246), Endoplasmin [270], HSP90B1",−0.54
same,"light to heavy ratio (L/H ratio), log 2 scale, acetylated peptide (ac)[…](ac)GAGK (SEQ ID NO: 801)","KRR1 small subunit processome component homolog [11], gene KRR1, drug:DMSO",1.00
same,"light to heavy ratio (L/H ratio) of acetylated peptide, log 2 scale","KTPCGEGSK(ac)TWDR (SEQ ID NO: 245), 40S ribosomal protein S20 [75], SNORD54, RPS20",−0.69
same,light to heavy ratio (L/H ratio) of acetylated peptide IVADK(ac)DYSVTANSK (SEQ ID NO: 317),"L-lactate dehydrogenase B chain [82], LDHB, drug:DMSO",1.00 log 2
same,L/H ratio of acetylated peptide,"LAK(ac)LSDGVAVLK (SEQ ID NO: 484), 60 kDa heat shock protein mitochondrial [396], HSPD1",0.61 log 2
same,L/H ratio of acetylated peptide,"LALQK(ac)QLTK (SEQ ID NO: 495), Isoform 2 of Zinc finger protein 385C [103], ZNF385C",−1.00 log 2
same,L/H ratio of acetylated peptide IHLEIK(ac)QLNR (SEQ ID NO: 57),"LMAN1 [346], log 2 scale, drug vs DMSO",0.00
same,L/H ratio of acetylated peptide,"LMK(ac)YGDSLYR (SEQ ID NO: 499), Nucleolar GTP-binding protein 1 [118], GTPBP4",−0.78 log 2
same,L/H ratio of acetylated peptide LYK(ac)[…] (SEQ ID NO: 4),"LMNB1 [261], log 2 scale, drug vs DMSO",0.00
same,L/H ratio of acetylated peptide […](ac)LENAR (SEQ ID NO: 58),"LMNB1 [271], log 2 scale, drug vs DMSO",0.00
same,L/H ratio of acetylated peptide GFGYK(ac)GSCFHR (SEQ ID NO: 59),"LOC390956 [71], log 2 scale, drug vs DMSO",0.00
same,L/H ratio of acetylated peptide,"LTLDK(ac)LDVK (SEQ ID NO: 485), Phosphoglycerate kinase 1 [11], PGK1",0.65 log 2
same,L/H ratio of acetylated peptide,"LVDTGDK(ac)FR (SEQ ID NO: 478), Isoform Long of Spectrin beta chain brain 1 [1913], SPTBN1",−0.46 log 2
same,L/H ratio of acetylated peptide,"LVSEK(ac)LASYQAAR (SEQ ID NO: 476), Isoform 2 of Myc proto-oncogene protein [163], MYC",−0.82 log 2
same,"light to heavy ratio (L/H ratio) of acetylated peptide, log 2 scale","LYATMEK(ac)HK (SEQ ID NO: 251), Histone acetyltransferase p300 [1590], EP300",−0.43
same,light to heavy ratio (L/H ratio) of acetylated peptide AVLK(ac)[…] (SEQ ID NO: 262),"Laminin receptor-like protein LAMRL5 [89], SNORA6, RPSAP15, SNORA62, RPSA, drug:DMSO",0.41 log 2
same,light to heavy ratio (L/H ratio) of acetylated peptide IHDVLCK(ac)LVEK (SEQ ID NO: 613),"Leucine-rich PPR motif-containing protein mitochondrial [864], gene LRPPRC, inhibitor:DMSO",0.47 log 2
same,light to heavy ratio (L/H ratio) of acetylated peptide SYVSEK(ac)DVTSAK (SEQ ID NO: 628),"Leucine-rich PPR motif-containing protein mitochondrial [1332], gene LRPPRC, inhibitor:DMSO",0.49 log 2
same,L/H ratio of acetylated peptide ICCQFDFK(ac)R (SEQ ID NO: 60),"MAN2A1 [373], log 2 scale, drug vs DMSO",0.00
same,L/H ratio of acetylated peptide YLTNQK(ac)NSNSK(ac)NDR (SEQ ID NO: 17),"MEAF6 [69:74], log 2 scale, drug vs DMSO",1.00
same,L/H ratio of acetylated peptide TLVLSDK(ac)HSPQK(ac)K (SEQ ID NO: 5),"MLL3 [2809:2814], log 2 scale, drug vs DMSO",0.00
same,light to heavy ratio (L/H ratio) of acetylated peptide VHLSQK(ac)YK (SEQ ID NO: 343),"Matrin-3 [473], MATR3, SNHG4, drug:DMSO",0.00 log 2
same,light to heavy ratio (L/H ratio) of acetylated peptide FLNK(ac)LAEER (SEQ ID NO: 342),"Matrin-3 [836], MATR3, SNHG4, drug:DMSO",0.00 log 2
